Data reported in patent publication US20130071547A1, “LOW CALORIC FAT REPLACERS” (NESTEC S.A., priority 2009, published 2013).
Entries after “also recorded” stand apart in the source; their conditions may differ. Where two headings read alike, the source gives them in different places. Each block holds one molecule with its values, some of them ahead of it.

How the values were obtained:
subjects [1] = assay: Description of the sensory attributes of GPR40 agonists by untrained subjects; assay type: in vivo, human; settings: for SUMMARY of the comments (sensory attributes): eight subjects with nose clips; for sensory attributes described by most participants: 0.5% ethanol solutions, untrained subjects with nose clips; for fatty mouth sensation (overall conclusion of Example 2): conclusion from triangle and descriptive tests
Description: In a different experiment, untrained subjects were asked to describe the sensory attributes of the agonists. The majority of participants described the molecules as creamy, oily, or providing mouth and lip coating (Tables 2 and 3).
Eight subjects wearing nose clips were presented with 0.5% ethanol solutions containing agonists of GPR40 and asked to describe them.

subjects [2] = assay: 2-Alternative forced choice test, which solution tastes fattier (Medica 16, rosiglitazone); assay type: in vivo, human; settings: agonist solution vs water, 40 subjects, p<0.05
Experimental: A correct choice is defined as choosing as fattier the sample containing the test ingredients. Medica 16 and rosiglitazone were assessed independently at three concentration, 10 μM, 50 μM and 100 μM.
Forty subjects were given two solutions one containing the agonist and the other water, and asked which one tastes fattier.

subjects [3] = assay: 2-Alternative forced choice test of the fattiness of 12-Methyltridecanal; assay type: in vivo, human
Experimental: 12-Methyltridecanal was dissolved in 0.5% ethanol in water. Control samples were 0.5% ethanol in water. Three concentrations were tested. For each concentration thirty nine subjects wearing nose clips were presented with one cup containing the compound and one control cup in a random order. The subjects were asked to identify which sample is fattier. The significance level is shown with a solid line.
2-Alternative forced choice tests were used to test the fattiness of 12-Methyltridecanal. Thirty nine subjects were presented with two cups, one with a solution containing 12-Methyltridecanal and the other vehicle alone. The subjects were wearing nose clips, and were asked which sample is fattier. A significant number of participants found the sample containing the highest concentration of 12-Methyltridecanal fattier (28 out of 39 subjects, p<0.01) (FIG. 5).

GPR40 [4] = target: T1, GPR40 (Homo sapiens, UniProt O14842); assay: Calcium response of Chem-1 cells stably expressing GPR40 (calcium sensitive dye, Flex station); assay type: cell-based
T1 construct: expressed in transfected cells; host or cells: Chem-1 (Chem1) cells stably expressing GPR40
T1 sequence (O14842 whole entry, species assumed): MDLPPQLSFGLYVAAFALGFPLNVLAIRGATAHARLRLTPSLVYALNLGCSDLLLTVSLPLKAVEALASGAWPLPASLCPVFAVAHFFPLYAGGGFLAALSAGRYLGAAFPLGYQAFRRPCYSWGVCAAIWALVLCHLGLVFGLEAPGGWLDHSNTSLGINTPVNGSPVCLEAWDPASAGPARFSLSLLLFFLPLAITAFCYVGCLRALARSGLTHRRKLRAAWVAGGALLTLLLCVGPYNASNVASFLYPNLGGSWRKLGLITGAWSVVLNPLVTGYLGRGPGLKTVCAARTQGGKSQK
Description: The calcium response of Chem-1 cells stably expressing GPR40 to increasing concentration of 12-Methyltridecanal is shown.
To determine if 12-Methyltridecanal is an agonist of GPR40, Chem1 cells stably expressing GPR40 were loaded with a calcium sensitive dye, stimulated with increasing concentrations of 12-Methyltridecanal, and their calcium response measured using a Flex station.

wild type Chem1 cells = assay: Calcium response of wild type Chem1 cells (control cells); assay type: cell-based
subjects [5] = assay: Triangle tests with GPR40 agonists (identify the odd sample); assay type: in vivo, human; settings: highest concentration tested, 0.5% ethanol in water, nose clips; for participants who correctly identified the odd sample: one compound cup and two control cups; for identification of the sample with the compound as the odd sample (significance): 21 subjects
Experimental: The GPR40 agonist (Compound 5 or Compound 20) was dissolved in 0.5% ethanol in water. Control samples were 0.5% ethanol in water. Three concentrations for compound 5 and four concentrations for compound 20 were tested. For each concentration twenty one subjects wearing nose clips were presented with one cup containing the compound and two control cups in a random order. The subjects were asked to identify the odd sample. […] The significance level is shown with a dashed line. * p<0.01, ** p<0.0001
Triangle tests were used with 21 subjects to determine if solutions containing Compound 5 or Compound 20 taste different from solutions with the same vehicle but without compounds. The subjects, wearing nose clips, were presented with three samples in random order, one containing the agonist, and two control solutions, and were asked to identify the odd sample. Eighteen out of 21 participants correctly identified the highest concentration of compound 5 (p<0.0001), and 13 out of 21 correctly identified the highest concentration of Compound 20 (p<0.01) (FIG. 3).

GPR40 [6] = target: T1, GPR40; settings: cited from earlier work
subjects [7] = assay: Descriptive information on taste, texture and after taste of compound 20; assay type: in vivo, human; settings: 51.2 μM in 0.5% ethanol, nose clips; for Taste (descriptor: number of subjects): wrapped cell: 'Slightly savoury: 1'; for Texture (descriptor: number of subjects): wrapped cells: 'Slightly viscous: 2', 'Slightly coats the mouth: 2'
Experimental: Six subjects wearing nose clips were presented with 0.5% ethanol in water (warm up sample) or 51.2 μM compound 20 in 0.5% ethanol (reference sample). Participants were asked to describe, avoiding hedonic terms, the taste, texture and aftertaste of the reference sample. Five out of 6 subjects found texture attributes compatible with the texture of fat.

SMILES: CCCCC/C=C\C/C=C\CCCCCCCC(=O)O [Linoleic acid]
- SUMMARY of the comments (sensory attributes) (subjects [1]; 450 μM in 0.5% ethanol, r7 continues in r8 ('texture.')): Astringent. Pungent; also recorded: Some mentions on creamy, viscous

SMILES: CC(C)(CCCCCCCCCCC(C)(C)CC(=O)O)CC(=O)O [Medica 16]
- sample with agonist chosen as tasting fattier than control (subjects [2]; 50 μM): significantly chosen as fattier than control solution; also recorded: more subjects found the solution with agonists to taste fattier
- sample with agonist chosen as tasting fattier than control (subjects [2]; 100 μM): significantly chosen as fattier than control solution; also recorded: more subjects found the solution with agonists to taste fattier

- calcium response to increasing concentrations (GPR40 [4]): clear dose-dependant response
SMILES: CC(C)CCCCCCCCCCC=O [12-Methyltridecanal]
- fatty taste effect versus control (subjects [3]; 10 μM (lowest concentration), 39 subjects, 0.5% ethanol in water, nose clips): no significant effect
- subjects choosing the sample with the compound as fattier than control (correct choice) (subjects [3]; 50 μM, 39 subjects, trend, p<0.05, not significant when taking into consideration multiple testing): 26
- subjects choosing the sample with the compound as fattier than control (subjects [3]; 100 μM (highest concentration), 39 subjects, 0.5% ethanol in water, nose clips, p<0.0087 (p<0.01)): 28 subjects
- fatty mouth sensation (overall conclusion of Example 2) (subjects [3]; conclusion from 2-Alternative forced choice test): impart a fatty mouth sensation
- calcium response to increasing concentrations (wild type Chem1 cells): do not respond; also recorded: did not respond

SMILES: CC#CC(CC(=O)O)c1ccc(OCc2cc(-c3ccccc3)oc2C)cc1 (stereo not drawn) [Compound 5]
- participants who correctly identified the odd sample (subjects [5]): Eighteen
- identification of the sample with the compound as the odd sample (significance) (subjects [5]): a significant number of subjects were able to identify the sample with the compound as the odd sample
- GPR40 agonist activity (GPR40 [6]; as described in patent WO2005/086661): GPR40 agonist activity was demonstrated
- SUMMARY of the comments (sensory attributes) (subjects [1]; 40 μM in 0.5% ethanol, agreement over most participants on mouth coating, creaminess): Bitter; also recorded: Astringent/tingling; also recorded: Slight mouth coating, Creaminess; also recorded: Persistent
- sensory attributes described by most participants (subjects [1]): agreement from most participants on the creaminess, mouth and lip coating
- fatty mouth sensation (overall conclusion of Example 2) (subjects [1]): impart a fatty mouth sensation

SMILES: Cc1ccccc1C#Cc1ccc(CCC(=O)O)cc1 [Compound 20]
- subjects who found texture attributes compatible with the texture of fat (subjects [7]): Five
- Others (comments) (subjects [7]; six subjects, wrapped cell: 'Slightly burning, hot, at the side of the tongue after spitting out.'): Slightly burning,
- Taste (descriptor: number of subjects) (subjects [7]; six subjects): Slightly
- Taste (descriptor: number of subjects) (subjects [7]; six subjects, no taste noted): None: 5
- After taste (descriptor: number of subjects) (subjects [7]; six subjects, wrapped cells: 'Astringent at the back of the throat', 'Bitter - Very slightly'): None: 3
- Texture (descriptor: number of subjects) (subjects [7]; six subjects): Slightly
- Texture (descriptor: number of subjects) (subjects [7]; six subjects, a bit oily texture): A bit oily: 1
- Texture (descriptor: number of subjects) (subjects [7]; six subjects, greasy texture): Greasy: 2
- Texture (descriptor: number of subjects) (subjects [7]; six subjects, no texture noted): None: 1
- Texture (descriptor: number of subjects) (subjects [7]; six subjects, slightly coats the mouth): Slightly coats
- Texture (descriptor: number of subjects) (subjects [7]; six subjects, waxy texture): Waxy: 1
- participants who correctly identified the odd sample (subjects [5]): 13 out of 21
- identification of the sample with the compound as the odd sample (significance) (subjects [5]): a significant number of subjects were able to identify the sample with the compound as the odd sample
- GPR40 agonist activity (GPR40 [6]; as described in Christiansen et al, Journal of Medicinal Chemistry, 2008, 51, 7061-7064): GPR40 agonist activity was demonstrated
- SUMMARY of the comments (sensory attributes) (subjects [1]; 51.2 μM in 0.5% ethanol, agreement over most participants on lip coating, creamy): Coating the lips, creamy; also recorded: Slightly bitter
- sensory attributes described by most participants (subjects [1]): agreement from most participants on the creaminess, mouth and lip coating
- fatty mouth sensation (overall conclusion of Example 2) (subjects [1]): impart a fatty mouth sensation

SMILES: CN(CCOc1ccc(CC2SC(=O)NC2=O)cc1)c1ccccn1 (stereo not drawn) [Roziglitazone]
- sample with agonist chosen as tasting fattier than control (subjects [2]; 50 μM): more subjects found the solution with agonists to taste fattier
- sample with agonist chosen as tasting fattier than control (subjects [2]; 50 μM, listed as rosiglitazone): significantly chosen as fattier than control solution
- sample with agonist chosen as tasting fattier than control (subjects [2]; 100 μM): more subjects found the solution with agonists to taste fattier
- sample with agonist chosen as tasting fattier than control (subjects [2]; 100 μM, listed as rosiglitazone): significantly chosen as fattier than control solution
